The source made the active and inactive calls. The rule behind the calls is not given here.
What was measured:
SH-SY5Y [1] = assay: Cytoprotective activity against p-tau-induced toxicity in human SH-SY5Y cells assessed as reduction in cell viability at 8 uM incubated for 12 hrs by CCK-8 assay relative to control; assay type: functional, cell-based
SH-SY5Y [2] = assay: Cytoprotective activity against p-tau-induced toxicity in human SH-SY5Y cells assessed as cell death at 8 uM incubated for 12 hrs by CCK-8 assay; assay type: functional, cell-based
SH-SY5Y [3] = assay: Protective activity against p-tau induced ER-stress associated apoptosis in human SH-SY5Y cells assessed as reduction in CHOP mRNA expression by qRT-PCR analysis; assay type: functional, cell-based
SH-SY5Y [4] = assay: Cytoprotective activity against p-tau-induced toxicity in human SH-SY5Y cells assessed as reduction in cell viability at 0.3 uM incubated for 12 hrs by CCK-8 assay; assay type: functional, cell-based
SH-SY5Y [5] = assay: Protective activity against p-tau induced ER-stress associated apoptosis in human SH-SY5Y cells assessed as reduction in TRB3 mRNA expression by qRT-PCR analysis; assay type: functional, cell-based
SH-SY5Y [6] = assay: Protective activity against p-tau induced ER-stress associated apoptosis in human SH-SY5Y cells assessed as reduction in GADD34 mRNA expression by qRT-PCR analysis; assay type: functional, cell-based
SH-SY5Y [7] = assay: Protective activity against p-tau induced ER-stress associated apoptosis in human SH-SY5Y cells assessed as reduction in ATF4 mRNA expression by qRT-PCR analysis; assay type: functional, cell-based
SH-SY5Y [8] = assay: Antiinflammatory activity against p-tau-induced human SH-SY5Y cells assessed as reduction in IRF3 mRNA expression at 5 uM by qRT-PCR analysis; assay type: functional, cell-based
SH-SY5Y [9] = assay: Antiinflammatory activity against p-tau-induced human SH-SY5Y cells assessed as reduction in TNFalpha mRNA expression at 5 uM by qRT-PCR analysis; assay type: functional, cell-based
SH-SY5Y [10] = assay: Antiinflammatory activity against p-tau-induced human SH-SY5Y cells assessed as reduction in IL1beta mRNA expression at 5 uM by qRT-PCR analysis; assay type: functional, cell-based
SH-SY5Y [11] = assay: Protective activity against p-tau induced UPR response in human SH-SY5Y cells assessed as reduction spliced Xbp1 mRNA expression at 5 uM by qRT-PCR analysis; assay type: functional, cell-based
Platelet factor 4 = molecular target: T1, Platelet factor 4 (Homo sapiens, UniProt P02776); assay: Binding affinity to human recombinant PF4 by Biolayer interferometry analysis
T1 sequence (P02776 whole entry): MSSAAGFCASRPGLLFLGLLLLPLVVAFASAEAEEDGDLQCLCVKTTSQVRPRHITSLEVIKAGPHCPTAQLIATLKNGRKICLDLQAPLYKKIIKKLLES

SH-SY5Y [12] = assay: Protection against p-tau-induced morphological changes in human SH-SY5Y cells assessed as change in cell density at 5 uM incubated for 24 hrs by contrast microscopic analysis; assay type: functional, cell-based
SH-SY5Y [13] = assay: Protective activity against tunicamycin induced ER-stress in human SH-SY5Y cells assessed as reduction ATF4 mRNA expression at 5 uM incubated for 24 hrs by qRT-PCR analysis; assay type: functional, cell-based
[14] = molecular target: Microtubule-associated protein tau (Homo sapiens, UniProt P10636); assay: Inhibition of BLI biosensor-immobilized heparin binding to p-tau hyperphosphorylation (unknown origin) by Biolayer interferometry analysis
SH-SY5Y [15] = assay: Protective activity against p-tau induced ER-stress in human SH-SY5Y cells assessed as reduction spliced Xbp1 mRNA expression at 5 uM by qRT-PCR analysis; assay type: functional, cell-based
SH-SY5Y [16] = assay: Protective activity against thapsigargin induced ER-stress in human SH-SY5Y cells assessed as reduction ATF4 mRNA expression at 5 uM incubated for 24 hrs by qRT-PCR analysis; assay type: functional, cell-based
SH-SY5Y [17] = assay: Protective activity against p-tau induced UPR response in human SH-SY5Y cells assessed as reduction ERdj4 mRNA expression at 5 uM by qRT-PCR analysis; assay type: functional, cell-based
SH-SY5Y [18] = assay: Protective activity against thapsigargin induced ER-stress in human SH-SY5Y cells assessed as reduction P58ipk mRNA expression at 5 uM incubated for 24 hrs by qRT-PCR analysis; assay type: functional, cell-based
SH-SY5Y [19] = assay: Protection against p-tau-induced morphological changes in human SH-SY5Y cells assessed as change in cell morphology at 5 uM incubated for 24 hrs by contrast microscopic analysis; assay type: functional, cell-based
SH-SY5Y [20] = assay: Protective activity against p-tau induced ER-stress in human SH-SY5Y cells assessed as reduction ERdj4 mRNA expression at 5 uM by qRT-PCR analysis; assay type: functional, cell-based
SH-SY5Y [21] = assay: Cytoprotective activity against p-tau-induced toxicity in human SH-SY5Y cells assessed as reduction in cell viability at 8 uM incubated for 12 hrs by CCK-8 assay; assay type: functional, cell-based
SH-SY5Y [22] = assay: Cytoprotective activity against p-tau-induced toxicity in human SH-SY5Y cells assessed as cell viability incubated for 12 hrs by CCK-8 assay; assay type: functional, cell-based
SH-SY5Y [23] = assay: Protective activity against p-tau induced ER-stress in human SH-SY5Y cells assessed as reduction Bip mRNA expression at 5 uM by qRT-PCR analysis; assay type: functional, cell-based
SH-SY5Y [24] = assay: Protective activity against thapsigargin induced ER-stress in human SH-SY5Y cells assessed as reduction Xbp1s mRNA expression at 5 uM incubated for 24 hrs by qRT-PCR analysis; assay type: functional, cell-based
SH-SY5Y [25] = assay: Protective activity against tunicamycin induced ER-stress in human SH-SY5Y cells assessed as reduction Xbp1s mRNA expression at 5 uM incubated for 24 hrs by qRT-PCR analysis; assay type: functional, cell-based
SH-SY5Y [26] = assay: Cytoprotective activity against p-tau-induced toxicity in human SH-SY5Y cells incubated for 24 hrs by TEM analysis; assay type: functional, cell-based
SH-SY5Y [27] = assay: Protective activity against p-tau induced UPR response in human SH-SY5Y cells assessed as reduction Bip mRNA expression at 5 uM by qRT-PCR analysis; assay type: functional, cell-based
SH-SY5Y [28] = assay: Protective activity against tunicamycin induced ER-stress in human SH-SY5Y cells assessed as reduction P58ipk mRNA expression at 5 uM incubated for 24 hrs by qRT-PCR analysis; assay type: functional, cell-based

Microtubule-associated protein tau, sequence (P10636 whole entry, canonical isoform): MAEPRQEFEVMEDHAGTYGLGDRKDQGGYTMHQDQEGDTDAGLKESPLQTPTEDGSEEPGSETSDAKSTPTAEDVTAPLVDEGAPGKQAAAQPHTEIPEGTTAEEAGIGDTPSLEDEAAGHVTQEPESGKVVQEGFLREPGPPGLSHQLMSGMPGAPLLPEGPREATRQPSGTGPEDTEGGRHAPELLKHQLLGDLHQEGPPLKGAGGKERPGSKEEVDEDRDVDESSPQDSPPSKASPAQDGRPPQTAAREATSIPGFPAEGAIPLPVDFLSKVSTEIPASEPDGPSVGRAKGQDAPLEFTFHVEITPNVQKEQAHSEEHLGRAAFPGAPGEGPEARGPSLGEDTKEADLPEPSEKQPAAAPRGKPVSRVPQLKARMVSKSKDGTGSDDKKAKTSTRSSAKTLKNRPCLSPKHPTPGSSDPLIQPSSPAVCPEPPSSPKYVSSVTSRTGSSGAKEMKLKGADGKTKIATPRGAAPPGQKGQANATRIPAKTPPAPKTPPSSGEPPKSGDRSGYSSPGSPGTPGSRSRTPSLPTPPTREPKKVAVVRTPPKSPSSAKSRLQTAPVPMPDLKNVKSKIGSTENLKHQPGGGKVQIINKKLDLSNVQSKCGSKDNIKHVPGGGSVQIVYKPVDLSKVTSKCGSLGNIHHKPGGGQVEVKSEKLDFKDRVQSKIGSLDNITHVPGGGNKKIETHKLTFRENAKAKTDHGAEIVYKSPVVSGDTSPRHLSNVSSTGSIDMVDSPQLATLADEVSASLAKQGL

SMILES	Activity (SH-SY5Y [2])	Activity (SH-SY5Y [3])	Activity (SH-SY5Y [5])	Activity (SH-SY5Y [6])	Activity (SH-SY5Y [7])	Activity (SH-SY5Y [8])	Activity (SH-SY5Y [9])	Activity (SH-SY5Y [10])	EC50 (SH-SY5Y [22])	Activity (SH-SY5Y [26])	other results
COC(=O)[C@]12CCC(C)(C)C[C@H]1C1=CCC3[C@@]4(C)CC[C@H](O)C(C)(C)C4CC[C@@]3(C)C1(C)CC2 (some centres undefined)	–	–	–	–	–	–	–	–	–	–	Activity (SH-SY5Y [1]): No effect
O=C(O)[C@H]1O[C@@H](O[C@H]2[C@H](O)[C@@H](NS(=O)(=O)O)[C@H](OCCNS(=O)(=O)O)O[C@@H]2COS(=O)(=O)O)[C@H](O)[C@@H](O)[C@@H]1O[C@H]1O[C@H](COS(=O)(=O)O)[C@@H](O)[C@H](O)[C@H]1NS(=O)(=O)O	inactive	inactive	inactive	inactive	inactive	inactive	inactive	inactive	–	–	Activity (SH-SY5Y [4]): Moderate_effect
COC(=O)[C@]12CCC(C)(C)C[C@H]1C1=CCC3[C@@]4(C)CC[C@H](O[C@@H]5O[C@H](COS(=O)(=O)O)[C@@H](O[C@@H]6O[C@H](C(=O)O)[C@@H](O[C@H]7O[C@H](COS(=O)(=O)O)[C@@H](O)[C@H](O)[C@H]7NS(=O)(=O)O)[C@H](O)[C@H]6O)[C@H](O)[C@H]5NS(=O)(=O)O)C(C)(C)C4CC[C@@]3(C)C1(C)CC2 (some centres undefined)	inactive	Active	Active	Active	Active	Active	Active	Active	2690 nM	Active	Activity (SH-SY5Y [11]): Active; IC50 (Platelet factor 4): 21.8 µM; Activity (SH-SY5Y [12]): Active; Activity (SH-SY5Y [13]): inactive; IC50 [14]: 28.8 µM; Activity (SH-SY5Y [15]): Active; Activity (SH-SY5Y [16]): inactive; Activity (SH-SY5Y [17]): Active; Activity (SH-SY5Y [18]): inactive; Activity (SH-SY5Y [19]): Active; Activity (SH-SY5Y [20]): Active; Activity (SH-SY5Y [21]): Active; Activity (SH-SY5Y [23]): Active; Activity (SH-SY5Y [24]): inactive; Activity (SH-SY5Y [25]): inactive; Activity (SH-SY5Y [27]): Active; Activity (SH-SY5Y [28]): inactive
CN1CCc2cccc3c2[C@H]1Cc1ccc(O)c(O)c1-3 [APOMORPHINE]	–	–	–	–	–	–	–	–	2900 nM	Active	–
